Data as given in ChEMBL document CHEMBL5550185, “Targeting hTERT Promoter G-Quadruplex DNA Structures with Small-Molecule Ligand to Downregulate hTERT Expression for Triple-Negative Breast Cancer Therapy” (J Med Chem, 2024).
Active and inactive are the calls of the source. No cut-off for these calls is given here.

Legend:
[1] = Toxicity in female Balb/c nude mouse xenografted with human MDA-MB-231 cells assessed as change in lymphocyte count at 2 to 5 mg/kg, iv administered via tail vein every 2 days for 16 days; assay type: organism-based; conditions: in vivo, 384 h, dose 2-5 mg/kg, time 16 day
[2] = Upregulation of HMOX1 gene expression in human MDA-MB-231 cells assessed as fold change at 1 uM measured after 48 hrs by RNA-seq analysis relative to control; assay type: functional
MDA-MB-231 [3] = experiment: Inhibition of hTERT protein expression in human MDA-MB-231 cells measured after 48 hrs by Western blot analysis; assay type: functional, cell-based; conditions: dose 0-1.5 µM
[4] = Selectivity ratio of binding affinity to human TERT G4 DNA to binding affinity to VEGF G4 DNA (unknown origin)
MDA-MB-231 [5] = experiment: Induction of ferroptosis in human MDA-MB-231 cells assessed as disruption of iron metabolism by measuring increase in bright yellow fluorescent spots measured after 48 hrs by FerroOrange/Hoechst 33342 staining based confocal microscopic analysis; assay type: functional, cell-based; conditions: dose 0-1.5 µM
MDA-MB-231 [6] = experiment: Induction of autophagy in human MDA-MB-231 cells assessed as upregulation of LC3-II protein expression at 0 to 1.5 uM measured after 48 hrs by Western blot analysis; assay type: functional, cell-based; conditions: dose 0-1.5 µM
MDA-MB-231 [7] = experiment: Induction of senescence in human MDA-MB-231 cells at 0 to 1.5 uM measured after 48 hrs by SA-beta-gal assay; assay type: functional, cell-based; conditions: dose 0-1.5 µM
MDA-MB-231 [8] = experiment: Antitumor activity against human MDA-MB-231 cells xenografted in female Balb/c mouse assessed as inhibition of tumor cell proliferation at 5 mg/kg, iv administered via tail vein every 2 days for 16 days by Ki67 staining based assay; assay type: functional, organism-based; conditions: time 16.0 day
HepG2 = experiment: Cytotoxicity against telomerase-positive human HepG2 cells assessed as inhibition of cell growth incubated for 48 hrs by MTT assay; assay type: functional, cell-based; conditions: HepG2, 48 h
[9] = Upregulation of HLA-E gene expression in human MDA-MB-231 cells assessed as fold change at 1 uM measured after 48 hrs by RNA-seq analysis relative to control; assay type: functional
[10] = Toxicity in female Balb/c nude mouse xenografted with human MDA-MB-231 cells assessed as change in […] level at 2 to 5 mg/kg, iv administered via tail vein every 2 days for 16 days; assay type: organism-based; conditions: in vivo, 384 h, dose 2-5 mg/kg, time 16 day
[11] = Toxicity in female Balb/c nude mouse xenografted with human MDA-MB-231 cells assessed as reduction in body weight at 2 to 5 mg/kg, iv administered via tail vein every 2 days for 16 days; assay type: organism-based; conditions: in vivo, 384 h, dose 2-5 mg/kg, time 16 day
MDA-MB-231 [12] = experiment: Induction of mitochondrial dysfunction in human MDA-MB-231 cells assessed as downregulation of mitochondrial respiratory complex III-UQCRC2 expression incubated for 48 hrs by Western blot analysis; assay type: functional, cell-based; conditions: dose 0-1.5 µM
MDA-MB-231 [13] = experiment: Inhibition of hTERT expression at transcriptional level in human MDA-MB-231 cells at 1 uM measured after 48 hrs by RNA-seq analysis; assay type: functional, cell-based
MDA-MB-231 [14] = experiment: Induction of mitochondrial dysfunction in human MDA-MB-231 cells assessed as downregulation of mitochondrial respiratory complex IV-COX II expression incubated for 48 hrs by Western blot analysis; assay type: functional, cell-based; conditions: dose 0-1.5 µM
MDA-MB-231 [15] = experiment: Downregulation of ND3 gene expression in human MDA-MB-231 cells at 1 uM measured after 48 hrs by RNA-seq analysis; assay type: functional, cell-based
[16] = Upregulation of PLK4 gene expression in human MDA-MB-231 cells assessed as fold change at 1 uM measured after 48 hrs by RNA-seq analysis relative to control; assay type: functional
MDA-MB-231 [17] = experiment: Downregulation of ND5 gene expression in human MDA-MB-231 cells at 1 uM measured after 48 hrs by RNA-seq analysis; assay type: functional, cell-based
Quadruplex DNA [18] = experiment: Binding affinity to G4 DNA in telomerase-positive live human MDA-MB-231 cells assessed as colocalization of BG4 and compound at 5 uM incubated for 2 hrs by immunofluorescence assay; assay type: cell-based
[19] = Upregulation of HLA-B gene expression in human MDA-MB-231 cells assessed as fold change at 1 uM measured after 48 hrs by RNA-seq analysis relative to control; assay type: functional
Quadruplex DNA [20] = experiment: Binding affinity to hTERT G4 DNA assessed as thermal stability by measuring change in melting temperature at 400 uM […]; assay type: nucleic-acid assay; conditions: Homo sapiens
[21] = Upregulation of IRS1 gene expression in human MDA-MB-231 cells assessed as fold change at 1 uM measured after 48 hrs by RNA-seq analysis relative to control; assay type: functional
[22] = Upregulation of CALML6 gene expression in human MDA-MB-231 cells assessed as fold change at 1 uM measured after 48 hrs by RNA-seq analysis relative to control; assay type: functional
[23] = Cytotoxicity against human HK-2 cells assessed as inhibition of cell growth incubated for 48 hrs by MTT assay; assay type: toxicity, cell-based
[24] = Toxicity in female Balb/c nude mouse xenografted with human MDA-MB-231 cells assessed as pathological changes in spleen at 2 to 5 mg/kg, iv administered via tail vein every 2 days for 16 days by H and E staining based analysis; assay type: organism-based; conditions: in vivo, 384 h, dose 2-5 mg/kg, time 16 day
MDA-MB-231 [25] = experiment: Antitumor activity against human MDA-MB-231 cells xenografted in female Balb/c mouse assessed as reduction in tumor weight at 2 mg/kg, iv administered via tail vein every 2 days for 16 days relative to control; assay type: functional; parameters: scale not given: the % may be the effect or the level left; conditions: time 16 day
Quadruplex DNA [26] = experiment: Binding affinity to human TERT G4 DNA assessed as adduct formation by measuring appearance of new peak at 5 uM by ultraviolet spectrophotometric titration method; assay type: nucleic-acid assay
MDA-MB-231 [27] = experiment: Antitumor activity against human MDA-MB-231 cells xenografted in female Balb/c mouse assessed as inhibition of tumor cell proliferation at 5 mg/kg, iv administered via tail vein every 2 days for 16 days by TUNEL assay; assay type: functional, organism-based; conditions: time 16.0 day
MDA-MB-231 [28] = experiment: Cytotoxicity against human MDA-MB-231 cells transfected with hTERT-pcDNA3.1(+)-C-eBFP overexpressing hTERT assessed as inhibition of cell growth measured after 48 hrs by MTT assay; assay type: functional, cell-based; conditions: MDA-MB-231, 48 h
[29] = Upregulation of HLA-F gene expression in human MDA-MB-231 cells assessed as fold change at 1 uM measured after 48 hrs by RNA-seq analysis relative to control; assay type: functional
DNA = experiment: Binding affinity to Ds26 duplex DNA (unknown origin) assessed as change in enthalpy at 400 uM by ITC analysis; assay type: nucleic-acid assay
[30] = Upregulation of FTH1 gene expression in human MDA-MB-231 cells assessed as fold change at 1 uM measured after 48 hrs by RNA-seq analysis relative to control; assay type: functional
[31] = Upregulation of NFATC4 gene expression in human MDA-MB-231 cells assessed as fold change at 1 uM measured after 48 hrs by RNA-seq analysis relative to control; assay type: functional
U2OS = experiment: Cytotoxicity against alternative lengthening of telomere-positive human U2OS cells assessed as inhibition of cell growth incubated for 48 hrs by MTT assay; assay type: functional, cell-based
MDA-MB-231 [32] = experiment: Downregulation of ND1 gene expression in human MDA-MB-231 cells at 1 uM measured after 48 hrs by RNA-seq analysis; assay type: functional, cell-based
[33] = target: Telomerase reverse transcriptase (Homo sapiens) (UniProt O14746); experiment: Inhibition of telomerase activity in human MDA-MB-231 cells at >=1 uM incubated for 30 mins by SYBR Gold staining based TRAP assay; assay type: cell-based
Sequence of Telomerase reverse transcriptase (Homo sapiens) (O14746 whole entry): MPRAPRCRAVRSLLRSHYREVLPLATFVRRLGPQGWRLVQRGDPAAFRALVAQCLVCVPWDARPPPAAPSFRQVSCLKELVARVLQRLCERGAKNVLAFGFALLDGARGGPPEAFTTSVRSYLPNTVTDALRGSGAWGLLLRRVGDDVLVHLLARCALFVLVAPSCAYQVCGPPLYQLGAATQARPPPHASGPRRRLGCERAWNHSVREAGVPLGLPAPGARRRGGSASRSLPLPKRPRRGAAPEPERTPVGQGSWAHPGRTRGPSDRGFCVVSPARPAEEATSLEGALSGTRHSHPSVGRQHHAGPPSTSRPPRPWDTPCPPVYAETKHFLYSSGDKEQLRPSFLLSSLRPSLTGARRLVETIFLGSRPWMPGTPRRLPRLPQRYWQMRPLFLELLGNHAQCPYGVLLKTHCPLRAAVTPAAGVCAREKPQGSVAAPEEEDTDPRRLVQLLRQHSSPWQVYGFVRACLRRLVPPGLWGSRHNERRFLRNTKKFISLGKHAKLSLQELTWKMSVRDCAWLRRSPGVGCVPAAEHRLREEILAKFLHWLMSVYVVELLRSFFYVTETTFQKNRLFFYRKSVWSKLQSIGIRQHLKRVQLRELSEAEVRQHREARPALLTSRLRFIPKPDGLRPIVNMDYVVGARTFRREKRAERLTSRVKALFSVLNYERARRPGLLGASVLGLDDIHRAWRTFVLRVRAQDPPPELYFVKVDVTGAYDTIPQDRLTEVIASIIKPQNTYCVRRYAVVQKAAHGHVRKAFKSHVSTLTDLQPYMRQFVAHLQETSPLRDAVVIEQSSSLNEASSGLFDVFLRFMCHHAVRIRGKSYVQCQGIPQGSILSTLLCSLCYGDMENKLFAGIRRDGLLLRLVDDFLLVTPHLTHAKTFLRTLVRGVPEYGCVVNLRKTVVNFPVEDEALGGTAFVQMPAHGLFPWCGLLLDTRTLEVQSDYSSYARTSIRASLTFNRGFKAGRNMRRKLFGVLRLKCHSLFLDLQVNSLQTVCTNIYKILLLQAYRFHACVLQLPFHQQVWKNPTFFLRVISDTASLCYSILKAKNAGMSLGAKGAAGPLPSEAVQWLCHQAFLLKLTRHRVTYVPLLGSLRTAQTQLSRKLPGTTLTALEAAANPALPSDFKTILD

Selectivity ratio [4]: 2
ΔTm (Quadruplex DNA [20]): 11.7 °C
Activity (Quadruplex DNA [26]): Active
deltaH (DNA): -1.32 kcal/mol
inhibition [33]: Active
SMILES: C[n+]1c(/C=C/c2c[nH]c3ccccc23)cc(/C=C2\Sc3ccccc3N2CCCN2CCC(C(F)(F)F)CC2)c2ccccc21.[I-]
Activity [1]: Non-Toxic
fold change (FC) [2]: >2
inhibition (MDA-MB-231 [3]): Dose-Dependent Effect
Activity (MDA-MB-231 [5]): Dose-Dependent Effect
Activity (MDA-MB-231 [6]): Active
Activity (MDA-MB-231 [7]): Active
Activity (MDA-MB-231 [8]): Active
IC50 (HepG2): 2.9 µM
fold change (FC) [9]: >2
Activity [10]: Non-Toxic
Activity [11]: Non-Toxic
Activity (MDA-MB-231 [12]): Dose-Dependent Effect
inhibition (MDA-MB-231 [13]): Active
Activity (MDA-MB-231 [14]): Dose-Dependent Effect
Activity (MDA-MB-231 [15]): Active
fold change (FC) [16]: >2
Activity (MDA-MB-231 [17]): Active
Activity (Quadruplex DNA [18]): Active
fold change (FC) [19]: >2
fold change (FC) [21]: >2
fold change (FC) [22]: >2
IC50 at 48 h [23]: 9.4 µM
Activity [24]: Non-Toxic
Activity (MDA-MB-231 [25]): 48.7%
Activity (MDA-MB-231 [27]): Active
IC50 (MDA-MB-231 [28]): 3.3 µM
fold change (FC) [29]: >2
fold change (FC) [30]: >2
fold change (FC) [31]: >2
IC50 (U2OS): 3.9 µM
Activity (MDA-MB-231 [32]): Active
